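Each compound was tested at five concentrations against cells in 96-well plates for 48 hours. Here, GI50 denotes the concentration required for 50% inhibition of growth.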 Active and inactive are the calls of the source. Cut-off read from the data, not from the text of the source: active = GI50 up to about 1.1 µM and inactive = higher. Non-standard residues stand in square brackets, D forms with d. Residues, ends and D or L forms follow the SMILES beside them. ξ: configuration not given here. *: point of attachment. NMeF = CN[C@@H](Cc1ccccc1)C(=O)O; NMeV = CN[C@H](C(=O)O)C(C)C; ξNMeV = CNC(C(=O)O)C(C)C; Boc = CC(C)(C)OC(=O)*; OBn = c1ccc(CO*)cc1
How the values were obtained:
Assay in all cases: growth of human tumour cells (NCI), 48 h
BT-549 = system: BT-549
CCRF-CEM = system: CCRF-CEM
DU-145 = system: DU-145
EKVX = system: EKVX
HCT-116 = system: HCT-116
HL-60 = system: HL-60
K562 = system: K562
LOX IMVI = system: LOX IMVI
M14 = system: M14
MCF7 = system: MCF7
MDA-N = system: MDA-N
NCI-H460 = system: NCI-H460
RPMI-8226 = system: RPMI-8226
SN12C = system: SN12C
SNB-19 = system: SNB-19
TK-10 = system: TK-10
UACC-62 = system: UACC-62
OVCAR-4 = system: OVCAR-4
OVCAR-8 = system: OVCAR-8
PC-3 = system: PC-3

SMILES | GI50 (BT-549) | GI50 (CCRF-CEM) | GI50 (DU-145) | GI50 (EKVX) | GI50 (HCT-116) | GI50 (HL-60) | GI50 (K562) | GI50 (LOX IMVI) | GI50 (M14) | GI50 (MCF7) | GI50 (MDA-N) | GI50 (NCI-H460) | GI50 (RPMI-8226) | GI50 (SN12C) | GI50 (SNB-19) | GI50 (TK-10) | GI50 (UACC-62) | GI50 (OVCAR-4) | GI50 (OVCAR-8) | GI50 (PC-3)
CCOC(=O)NC(NCC(O)c1ccccc1)(C(F)(F)F)C(F)(F)F (configuration not stated) | > 100 µM (inactive) | > 100 µM (inactive) | > 100 µM (inactive) | > 100 µM (inactive) | > 100 µM (inactive) | > 100 µM (inactive) | > 100 µM (inactive) | > 100 µM (inactive) | > 100 µM (inactive) | > 100 µM (inactive) | > 100 µM (inactive) | > 100 µM (inactive) | > 100 µM (inactive) | > 100 µM (inactive) | > 100 µM (inactive) | > 100 µM (inactive) | > 100 µM (inactive) | – | – | –
CCOC(=O)c1csc(NC(=O)CCN2CCOCC2)n1 | – | 29.6 µM (inactive) | 44.7 µM (inactive) | 77.3 µM (inactive) | – | 27.7 µM (inactive) | 74.8 µM (inactive) | 93.8 µM (inactive) | 76.2 µM (inactive) | 43.8 µM (inactive) | 59.7 µM (inactive) | > 100 µM (inactive) | 43.3 µM (inactive) | – | > 100 µM (inactive) | 39.9 µM (inactive) | > 100 µM (inactive) | > 100 µM (inactive) | 29.8 µM (inactive) | 67.6 µM (inactive)
C#CCNC(CSSCC(N)C(=O)O)C(=O)O (configuration not stated) | – | > 100 µM (inactive) | > 100 µM (inactive) | > 100 µM (inactive) | > 100 µM (inactive) | – | – | – | > 100 µM (inactive) | > 100 µM (inactive) | > 100 µM (inactive) | – | > 100 µM (inactive) | – | > 100 µM (inactive) | > 100 µM (inactive) | > 100 µM (inactive) | > 100 µM (inactive) | > 100 µM (inactive) | > 100 µM (inactive)
CC(C)(C)[Si](C)(C)OCCCCC1CC2(S(=O)(=O)C3=CC=C=C=C3)ON1CC2S(=O)(=O)c1ccccc1 (configuration not stated) | > 100 µM (inactive) | – | > 100 µM (inactive) | > 100 µM (inactive) | > 100 µM (inactive) | – | > 100 µM (inactive) | – | > 100 µM (inactive) | > 100 µM (inactive) | > 100 µM (inactive) | > 100 µM (inactive) | > 100 µM (inactive) | > 100 µM (inactive) | > 100 µM (inactive) | > 100 µM (inactive) | > 100 µM (inactive) | > 100 µM (inactive) | > 100 µM (inactive) | –
COc1ccc2c(c1)OCC1=C2Oc2ccccc2C1 | 28 µM (inactive) | – | 83.9 µM (inactive) | 30.3 µM (inactive) | 36.6 µM (inactive) | 14.8 µM (inactive) | 22.1 µM (inactive) | 21.4 µM (inactive) | 38 µM (inactive) | – | 25 µM (inactive) | – | 23.1 µM (inactive) | 39.3 µM (inactive) | – | 40.2 µM (inactive) | 69 µM (inactive) | 31.6 µM (inactive) | 55.6 µM (inactive) | 34.8 µM (inactive)
CC1(C)OP(=O)(c2ccccc2)C=C1Br (configuration not stated) | – | – | > 100 µM (inactive) | > 100 µM (inactive) | > 100 µM (inactive) | 21 µM (inactive) | > 100 µM (inactive) | > 100 µM (inactive) | > 100 µM (inactive) | – | > 100 µM (inactive) | > 100 µM (inactive) | 0.348 µM (active) | > 100 µM (inactive) | > 100 µM (inactive) | > 100 µM (inactive) | > 100 µM (inactive) | > 100 µM (inactive) | > 100 µM (inactive) | > 100 µM (inactive)
O=NN(CCCl)C(=O)N[C@H]1CC[C@@H](CC(=O)O)CC1 | – | 28.6 µM (inactive) | – | > 100 µM (inactive) | > 100 µM (inactive) | 38.3 µM (inactive) | > 100 µM (inactive) | > 54.2 µM (inactive) | – | > 100 µM (inactive) | – | 55.2 µM (inactive) | 35.2 µM (inactive) | > 100 µM (inactive) | 99.3 µM (inactive) | – | 35.2 µM (inactive) | > 100 µM (inactive) | > 100 µM (inactive) | –
CC(=O)Nc1ccc2c3c(cc(O)c2c1)N(C(=O)CCCC(=O)N1CC(CCl)c2c1cc(O)c1cc(NC(C)=O)ccc21)CC3CCl (configuration not stated) | 0.011 µM (active) | < 0.01 µM (active) | < 0.01 µM (active) | 0.0423 µM (active) | < 0.01 µM (active) | < 0.01 µM (active) | < 0.01 µM (active) | < 0.01 µM (active) | < 0.01 µM (active) | < 0.01 µM (active) | – | < 0.01 µM (active) | 0.0109 µM (active) | < 0.01 µM (active) | < 0.01 µM (active) | 0.022 µM (active) | < 0.01 µM (active) | 0.0238 µM (active) | < 0.01 µM (active) | 0.0129 µM (active)
N#C/C(N)=C(C#N)/N=C/N | – | > 100 µM (inactive) | > 100 µM (inactive) | > 100 µM (inactive) | > 100 µM (inactive) | > 100 µM (inactive) | > 100 µM (inactive) | > 100 µM (inactive) | > 100 µM (inactive) | > 100 µM (inactive) | > 100 µM (inactive) | > 100 µM (inactive) | > 100 µM (inactive) | > 100 µM (inactive) | – | > 100 µM (inactive) | > 100 µM (inactive) | > 100 µM (inactive) | > 100 µM (inactive) | > 100 µM (inactive)
CC1OC(OCC2OC(Oc3c(-c4ccc(O)cc4)oc4cc(O)cc(O)c4c3=O)C(OC3OC(C)C(O)C(O)C3O)C(O)C2O)C(O)C(O)C1O (configuration not stated) | – | > 51.5 µM (inactive) | – | > 100 µM (inactive) | > 100 µM (inactive) | > 100 µM (inactive) | > 31.6 µM (inactive) | > 63.1 µM (inactive) | > 100 µM (inactive) | – | – | > 68.9 µM (inactive) | > 56.8 µM (inactive) | > 100 µM (inactive) | > 100 µM (inactive) | > 100 µM (inactive) | > 100 µM (inactive) | > 54.8 µM (inactive) | > 100 µM (inactive) | –
Clc1cccc(Cl)c1C1ON=C(c2ccccc2)N1C12CC3CC(CC(C3)C1)C2 (configuration not stated) | – | 10.4 µM (inactive) | 76.9 µM (inactive) | 37.4 µM (inactive) | 10.9 µM (inactive) | 3.3 µM (inactive) | 6.7 µM (inactive) | 7.26 µM (inactive) | 22.3 µM (inactive) | 0.121 µM (active) | 37.6 µM (inactive) | 13.7 µM (inactive) | 6.64 µM (inactive) | 41.6 µM (inactive) | 67.5 µM (inactive) | 63.7 µM (inactive) | 24 µM (inactive) | 25.3 µM (inactive) | 32.7 µM (inactive) | 4.11 µM (inactive)
CC(C)C(C(=O)N(C)[C@H](C(=O)N1CCC[C@H]1C(=O)N(C)[C@@H](Cc1ccccc1)C(=O)OCc1ccccc1)C(C)C)N(C)C(=O)[C@@H](NC(=O)OC(C)(C)C)C(C)C (some centres not stated) (Boc-V[ξNMeV][NMeV]P[NMeF]-OBn) | – | 11.2 µM (inactive) | – | > 31.6 µM (inactive) | 10.8 µM (inactive) | 4.58 µM (inactive) | 4.42 µM (inactive) | 23.9 µM (inactive) | 85.1 µM (inactive) | – | – | 15.8 µM (inactive) | 4.97 µM (inactive) | > 100 µM (inactive) | > 31.6 µM (inactive) | 29.2 µM (inactive) | > 31.6 µM (inactive) | > 29.5 µM (inactive) | > 31.6 µM (inactive) | –

Source: ChEMBL document CHEMBL1201862, “PubChem BioAssay data set” (2004)
